The test system of one experiment is TOM20 ubiquitylation. In words: TOM20-ubiquitylation assay (western blot of cell lysates). It is filed as cell-based, Human. Conditions: antimycin A/oligomycin mitophagy trigger, concentration for 1.5-fold gain of TOM20-Ub. The source says:
TOM20-Ubiquitylation Assay Human cell lines can be challenged with mitochondrial depolarizing agents (ionophores (eg. CCCP, valinomycin), mitochondrial complex inhibitors (oligomycin, antimycin A)) to induce ubiquitylation of TOM20, which is then further promoted in the presence of USP30 inhibitors. TOM20 ubiquitylation is subsequently assessed through western blotting of the cell lysates, with TOM20 ubiquitylation adduct detection possible due to an 8 kDa molecule weight increase for each molecule of ubiquitin added, resulting in laddering of a TOM20 immunoreactive band. TOM20-ubiquitylation levels can be quantified using chemiluminescence densitometry of laddered immunoreactive bands.

Another experiment concerns the target USP30 (Homo sapiens (Human), UniProt Q70CQ3). In words: USP30 biochemical IC50 assay (fluorescence polarisation). Conditions: geomean; USP30 4 nM, 30 min pre-incubation, TAMRA-peptide-ubiquitin FP substrate. In general terms: Polarisation of emitted light reports the rotation of a fluorescent probe.

USP30, sequence (Q70CQ3 57-517): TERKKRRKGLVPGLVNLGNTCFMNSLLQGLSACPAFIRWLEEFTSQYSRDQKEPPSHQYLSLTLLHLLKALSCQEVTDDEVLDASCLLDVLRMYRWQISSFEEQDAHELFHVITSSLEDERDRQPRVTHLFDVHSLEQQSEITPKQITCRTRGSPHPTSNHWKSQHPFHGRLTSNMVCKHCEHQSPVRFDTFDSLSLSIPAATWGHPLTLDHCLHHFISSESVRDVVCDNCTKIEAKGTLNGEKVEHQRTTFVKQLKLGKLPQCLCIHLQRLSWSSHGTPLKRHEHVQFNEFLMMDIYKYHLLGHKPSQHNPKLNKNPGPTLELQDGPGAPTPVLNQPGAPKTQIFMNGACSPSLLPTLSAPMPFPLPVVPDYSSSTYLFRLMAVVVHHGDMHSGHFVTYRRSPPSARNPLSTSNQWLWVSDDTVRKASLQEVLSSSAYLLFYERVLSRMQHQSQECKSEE
Procedure for USP30: Dilution plates were prepared at 21 times the final concentration (2100 μM for a final concentration of 100 μM) in 50% DMSO in a 96-well polypropylene V-bottom plate (Greiner #651201). A typical 8-point dilution series would be 100, 30, 10, 3, 1, 0.3, 0.1, 0.03 μM final. Reactions were performed in duplicate in black 384 well plates (small volume, Greiner 784076) in a final reaction volume of 21 μl.
Either lpl of 50% DMSO or diluted compound was added to the plate. USP30 (Boston Biochem #E582) was diluted in reaction buffer (40 mM Tris, pH 7.5, 0.005% Tween 20, 0.5 mg/ml BSA, 5 mM beta-mercaptoethanol) to achieve a final assay concentration of 4 nM, and 10 μl of diluted USP30 was added to the compound. Enzyme and compound were incubated for 30 min at room temp. Reactions were initiated by the addition of 50 nM of TAMRA labelled peptide linked to ubiquitin via an isopeptide bond as fluorescence polarisation substrate. Reactions were read immediately after addition of substrate and following a 2-hour incubation at room temperature. Readings were performed on a Pherastar Plus (BMG Labtech). λ Excitation 540 nm; λ Emission 590 nm.

In general, IC50 refers to the concentration at which inhibition is half-maximal. For `N#Cc1ccc(C2CC2)c(-c2cnc(C(=O)N(C3CC3)[C@@H]3C[C@@H](Cn4ccnn4)N(C#N)C3)o2)c1` [Example 1, N-((3R,5S)-5-((1H-1,2,3-Triazol-1-yl)methyl)-1-cyanopyrrolidin-3-yl)-5-(5-cyano-2-cyclopropylphenyl)-N-cyclopropyloxazole-2-carboxamide], the “EC1.5x (Geomean, nM); TOM20-Ub 1.5-fold gain” value in the experiment with TOM20 ubiquitylation worked out at 17 nM. Moreover, the half-inhibitory concentration (IC50) against USP30 came to 5 nM.
The like results for `N#Cc1ccc(C2CC2)c(-c2nnc(C(=O)N(C3CC3)[C@@H]3C[C@@H](Cn4ccnn4)N(C#N)C3)o2)c1` [Example 2, N-((3R,5S)-5-((1H-1,2,3-Triazol-1-yl)methyl)-1-cyanopyrrolidin-3-yl)-5-(5-cyano-2-cyclopropylphenyl)-N-cyclopropyl-1,3,4-oxadiazole-2-carboxamide] were, in that order, 15 nM and 11 nM.
As for `N#Cc1cccc(-c2cnc(C(=O)N[C@@H]3C[C@@H](Cn4ccnn4)N(C#N)C3)o2)c1` [Example 3, N-((3R,5S)-5-((1H-1,2,3-Triazol-1-yl)methyl)-1-cyanopyrrolidin-3-yl)-5-(3-cyanophenyl)oxazole-2-carboxamide], the “EC1.5x (Geomean, nM); TOM20-Ub 1.5-fold gain” value in the experiment on TOM20 ubiquitylation was found to be 8 nM. At USP30, the IC50 stood at 2 nM.
For `N#CN1C[C@H](NC(=O)c2ncc(-c3cccc(Cl)c3)o2)C[C@H]1Cn1ccnn1` [Example 5, N-((3R,5S)-5-((1H-1,2,3-Triazol-1-yl)methyl)-1-cyanopyrrolidin-3-yl)-5-(3-chlorophenyl)oxazole-2-carboxamide], in that order: 9 nM and 4 nM.
The like results for `COc1ccccc1-c1cnc(C(=O)N[C@@H]2C[C@@H](Cn3ccnn3)N(C#N)C2)o1` [Example 6, N-((3R,5S)-5-((1H-1,2,3-Triazol-1-yl)methyl)-1-cyanopyrrolidin-3-yl)-5-(2-methoxyphenyl)oxazole-2-carboxamide] were, in that order, 180 nM and 23 nM.
For `N#CN1C[C@H](NC(=O)c2ncc(-c3ccccc3C3CC3)o2)C[C@H]1Cn1ccnn1` [Example 8, N-((3R,5S)-5-((1H-1,2,3-Triazol-1-yl)methyl)-1-cyanopyrrolidin-3-yl)-5-(2-cyclopropylphenyl)oxazole-2-carboxamide], in that order: 41 nM and 14 nM.
As to `N#CN1C[C@H](NC(=O)c2ncc(-c3cccc(C4CC4)c3)o2)C[C@H]1Cn1ccnn1` [Example 12, N-((3R,5S)-5-((1H-1,2,3-Triazol-1-yl)methyl)-1-cyanopyrrolidin-3-yl)-5-(3-cyclopropylphenyl)oxazole2-carboxamide], the “EC1.5x (Geomean, nM); TOM20-Ub 1.5-fold gain” value in the experiment on TOM20 ubiquitylation turned out to be 25 nM. In addition, the IC50 against USP30 turned out to be 8 nM.
For `N#CN1C[C@H](NC(=O)c2nnc(-c3cc(OC(F)(F)F)ccc3C3CC3)o2)C[C@H]1Cn1ccnn1` [Example 13, N-((3R,5S)-5-((1H-1,2,3-Triazol-1-yl)methyl)-1-cyanopyrrolidin-3-yl)-5-(2-cyclopropyl-5-(trifluoromethoxy)phenyl)-1,3,4-oxadiazole-2-carboxamide], in that order: 6 nM and 5 nM.
For `N#Cc1ccc(OC2COC2)c(-c2cnc(C(=O)N(C3CC3)[C@@H]3C[C@@H](Cn4ccnn4)N(C#N)C3)o2)c1` [Example 16, N-((3R,5S)-5-((1H-1,2,3-Triazol-1-yl)methyl)-1-cyanopyrrolidin-3-yl)-5-(5-cyano-2-(oxetan-3-yloxy)phenyl)-N-cyclopropyloxazole-2-carboxamide], in that order: 950 nM and 28 nM.
For `N#Cc1cccc(-c2cnc(C(=O)N[C@@H]3C[C@@H](Cn4nccn4)N(C#N)C3)o2)c1` [Example 17, N-((3R,5S)-5-((2H-1,2,3-Triazol-2-yl)methyl)-1-cyanopyrrolidin-3-yl)-5-(3-cyanophenyl)oxazole-2-carboxamide], the “EC1.5x (Geomean, nM); TOM20-Ub 1.5-fold gain” value in the experiment on TOM20 ubiquitylation worked out at 16 nM. In addition, at USP30, the IC50 was 4 nM.
For `N#Cc1cccc(-c2cnc(C(=O)N[C@@H]3C[C@@H](Cn4cncn4)N(C#N)C3)o2)c1` [Example 18, N-((3R,5S)-5-((1H-1,2,4-Triazol-1-yl)methyl)-1-cyanopyrrolidin-3-yl)-5-(3-cyanophenyl)oxazole-2-carboxamide], the “EC1.5x (Geomean, nM); TOM20-Ub 1.5-fold gain” value with TOM20 ubiquitylation is 16 nM. The same compound yielded a half-inhibitory concentration (IC50) against USP30 of 2 nM.
The like results for `N#CN1C[C@H](NC(=O)c2cc(-c3cccc(C(F)(F)F)c3)ccn2)C[C@H]1Cn1ccnn1` [Example 24, N-((3R,5S)-5-((1H-1,2,3-Triazol-1-yl)methyl)-1-cyanopyrrolidin-3-yl)-4-(3-(trifluoromethyl)phenyl)picolinamide] were, in that order, 620 nM and 9 nM.
For `N#Cc1cccc(-c2cnc(C(=O)N[C@@H]3C[C@@H](Cn4cccn4)N(C#N)C3)o2)c1` [Example 26, N-((3R,5S)-5-((1H-Pyrazol-1-yl)methyl)-1-cyanopyrrolidin-3-yl)-5-(3-cyanophenyl)oxazole-2-carboxamide], in that order: 14 nM and 5 nM.
The like results for `N#CN1C[C@H](NC(=O)c2ncc(-c3cccc(C(F)(F)F)c3)o2)C[C@H]1Cn1cccn1` [Example 30, N-((3R,5S)-5-((1H-Pyrazol-1-yl)methyl)-1-cyanopyrrolidin-3-yl)(3(trifluoromethyl)phenyl)oxazole-2-carboxamide] were, in that order, 14 nM and 11 nM.
Regarding `N#Cc1ccc(C2CC2)c(-c2nnc(C(=O)N[C@@H]3C[C@@H](Cn4cccn4)N(C#N)C3)o2)c1` [Example 46, N-((3R,5S)-5-((1H-Pyrazol-1-yl)methyl)-1-cyanopyrrolidin-3-yl)-5-(5-cyano-2-cyclopropylphenyl)-1,3,4-oxadiazole-2-carboxamide], in the experiment with TOM20 ubiquitylation, the “EC1.5x (Geomean, nM); TOM20-Ub 1.5-fold gain” value is 19 nM. The concentration for half-maximal inhibition (IC50) against USP30 was found to be 9 nM.

The values above are taken from patent US20250034122A1, “SUBSTITUTED N-CYANOPYRROLIDINES WITH ACTIVITY AS USP30 INHIBITORS” (MISSION THERAPEUTICS LIMITED, priority 2021, published 2025).
